Entries after “also recorded” stand apart in the source; their conditions may differ.

In one data set the test system is authentic SARS-CoV-2. The following applies: cited from earlier work.
For the next data set, the target named is RBD-ACE2 binding (Severe acute respiratory syndrome coronavirus 2, UniProt P0DTC2). The data set is described as follows: ELISA ACE2:SARS-CoV-2 Spike inhibitor screening assay. The following applies: 25–200 μM compounds.
Data set [1] has as its system SARS-CoV-2. In words: Plaque formation assay. The following applies: Vero E6.
The next data set concerns the target human ACE2 (Homo sapiens, UniProt Q9BYF1). The format is binding.
The subject of data set [2] is SARS-CoV-2. In words: Authentic SARS-CoV-2 CPE reduction assay in Vero E6 cells. The format is cell-based.
The subject of data set [3] is SARS-CoV-2-pseudotyped lentivirus. The format is cell-based. The following applies: concentrations up to 100 μM.
Another data set has as its system HEK293. Type of data set: cell-based, human. The following applies: HEK293 cells.
Another data set addresses Spike-RBD protein (Severe acute respiratory syndrome coronavirus 2, UniProt P0DTC2). Type of data set: binding, SARS-CoV-2. The following applies: BLI screening.
A further data set addresses RBD (Severe acute respiratory syndrome coronavirus 2, UniProt P0DTC2). The following applies: streptavidin probes; cited from earlier work.
The subject of a further data set is zika virus. The following applies: cited from earlier work.
For data set [4] the following is noted: 200 and 300 mg/kg/day oral, 7 days.
For the next data set, the system named is HIV-1 protease. The following applies: cited from earlier work.
The next data set deals with Ebola virus. The following applies: cited from earlier work.
A further data set relates to H1N1 influenza virus. The following applies: cited from earlier work.

Chain of human ACE2 (Q9BYF1 18-805): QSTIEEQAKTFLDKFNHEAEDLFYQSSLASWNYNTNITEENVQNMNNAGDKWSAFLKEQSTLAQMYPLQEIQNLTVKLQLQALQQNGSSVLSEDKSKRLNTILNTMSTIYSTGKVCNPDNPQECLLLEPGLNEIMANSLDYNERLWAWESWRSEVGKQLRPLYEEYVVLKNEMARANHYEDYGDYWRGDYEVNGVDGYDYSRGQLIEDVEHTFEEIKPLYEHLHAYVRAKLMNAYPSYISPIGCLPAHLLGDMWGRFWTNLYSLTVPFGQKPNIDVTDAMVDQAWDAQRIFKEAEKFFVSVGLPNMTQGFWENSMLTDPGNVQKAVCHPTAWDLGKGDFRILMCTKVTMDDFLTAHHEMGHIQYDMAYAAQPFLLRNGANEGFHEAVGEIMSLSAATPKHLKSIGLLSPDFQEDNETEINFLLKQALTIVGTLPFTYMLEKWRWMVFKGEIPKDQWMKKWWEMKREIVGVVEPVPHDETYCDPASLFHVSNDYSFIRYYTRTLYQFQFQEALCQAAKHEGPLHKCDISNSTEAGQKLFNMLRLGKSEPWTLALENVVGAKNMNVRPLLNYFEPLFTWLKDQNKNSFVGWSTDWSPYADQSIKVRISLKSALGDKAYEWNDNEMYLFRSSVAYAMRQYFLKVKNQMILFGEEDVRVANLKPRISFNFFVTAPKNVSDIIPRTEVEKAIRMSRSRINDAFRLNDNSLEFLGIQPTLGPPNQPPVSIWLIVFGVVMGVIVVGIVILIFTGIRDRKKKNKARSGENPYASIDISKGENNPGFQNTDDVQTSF

As for `CC(C)=CCc1cc2c(cc1O)O[C@H](c1ccc(O)cc1)CC2=O` [Bvc, bavachin], the “effect against authentic SARS-CoV-2” value in the data set on authentic SARS-CoV-2 is reported as “effective against authentic SARS-CoV-2”. The “activity in ELISA (inhibition of RBD-ACE2 binding)” value at RBD-ACE2 binding is on record as “high activities”.
In the case of `CC(C)=CCc1c(O)ccc(C(=O)/C=C/c2ccc(O)cc2)c1O` [Ibvc, isobavachalcone], the “inhibition of plaque formation” value with SARS-CoV-2 [1] is recorded as “effective”. On RBD-ACE2 binding, the “activity in ELISA (inhibition of RBD-ACE2 binding)” value was “weakly active; also recorded: lacked activity”. Further, on human ACE2, the “binding to ACE2 in BLI” value is recorded as “bound to ACE2 receptor”. Moreover, in the data set with SARS-CoV-2 [2], the “inhibition of SARS-CoV-2-induced cytopathic effect” value is listed as “effective”. Also, the “inhibition of pseudovirus entry” value in [3] is “effectively inhibited pseudovirus entry”.
As for `O=C(/C=C/c1ccc(O)c(O)c1)OC[C@H]1O[C@@H](OCCc2ccc(O)c(O)c2)[C@H](O)[C@@H](O)[C@@H]1O` [CalB, calceolarioside B], the “activity in ELISA (inhibition of RBD-ACE2 binding)” value at RBD-ACE2 binding is “weakly active”.
For `O=C(/C=C/c1ccc(O)c(O)c1/C=C/c1ccc(O)c(O)c1)O[C@H](Cc1ccc(O)c(O)c1)C(=O)O` [SalA, salvianolic acid A], in the data set on SARS-CoV-2 [1], the “inhibition of plaque formation” value is “effective”. In addition, on RBD-ACE2 binding, the “activity in ELISA (inhibition of RBD-ACE2 binding)” value was “high activities”. Moreover, the “inhibition of SARS-CoV-2-induced cytopathic effect” value with SARS-CoV-2 [2] was “effective”. Also, the “inhibition of pseudovirus entry” value in data set [3] is listed as “weakly inhibited pseudovirus entry”.
Consider `COc1ccc(C[C@@H]2c3cc(Oc4cc(C[C@@H]5c6cc(O)c(OC)cc6CCN5C)ccc4O)c(OC)cc3CCN2C)cc1` [Isl, isoliensinine], for which, in the data set with authentic SARS-CoV-2, the “effect against authentic SARS-CoV-2” value is reported as “effective against authentic SARS-CoV-2”. Further, in the data set on SARS-CoV-2 [1], the “inhibition of plaque formation” value was “inhibited plaque formation”. In addition, the cytotoxicity entry with HEK293 is listed as “toxicity”. Moreover, at RBD-ACE2 binding, the “activity in ELISA (inhibition of RBD-ACE2 binding)” value was “high activities”.
For `COc1ccc2cc1Oc1ccc(cc1)C[C@H]1c3c(cc4c(c3Oc3cc5c(cc3OC)CCN(C)[C@@H]5C2)OCO4)CCN1C` [Ceph, cepharanthine], the “effect against authentic SARS-CoV-2” value in the data set with authentic SARS-CoV-2 was “effective against authentic SARS-CoV-2”. In addition, the “activity in ELISA (inhibition of RBD-ACE2 binding)” value at RBD-ACE2 binding is “almost inactive”.
For the molecule `O=C(/C=C/c1ccc(O)c2oc(-c3ccc(O)c(O)c3)cc12)O[C@H](Cc1ccc(O)c(O)c1)C(=O)O` [SalC, Salvianolic acid C], on Spike-RBD protein, the Kd came out at 6.2 µM. For the same molecule, the “binding activity to RBD measured by BLI” value on RBD is reported as “weak binding activity to RBD”.
As for `O=C(O[C@@H]1Cc2c(O)cc(O)cc2O[C@@H]1c1cc(O)c(O)c(O)c1)c1cc(O)c(O)c(O)c1` [EGCG, epigallocatechin gallate], the EC50 with zika virus is 21.4 µM; in the data set with Ebola virus, 50 µM; in the data set with H1N1 influenza virus it was 22 to 28 µM. For the same molecule, the body weights entry in data set [4] is “no adverse effect”. The survival entry in data set [4] was “no adverse effect”. Further, the organ weights entry in data set [4] (liver, kidney, lung, spleen, thymus) is given as “no adverse effect”. For the same molecule, the IC50 in the data set on HIV-1 protease was 50 to 100 µM. Moreover, the “inhibition of plaque formation” value with SARS-CoV-2 [1] was “effective”. Also, the “activity in ELISA (inhibition of RBD-ACE2 binding)” value at RBD-ACE2 binding was “high activities”. Besides, the “binding to ACE2 in BLI” value on human ACE2 was “bound to ACE2 receptor”. For the same molecule, the “inhibition of SARS-CoV-2-induced cytopathic effect” value in the data set on SARS-CoV-2 [2] is “effective”. In addition, the “inhibition of pseudovirus entry” value in data set [3] is on record as “effectively inhibited pseudovirus entry”.
Take `C=C[C@@](C)(/C=C/c1ccc(O)cc1)CCC=C(C)C` [Bkc, bakuchiol]: the “activity in ELISA (inhibition of RBD-ACE2 binding)” value at RBD-ACE2 binding is recorded as “weakly active; also recorded: lacked activity”. The “binding to ACE2 in BLI” value on human ACE2 is “bound to ACE2 receptor”. Moreover, the “inhibition of pseudovirus entry” value in data set [3] is reported as “effectively inhibited pseudovirus entry”.
As for bavachinin [Bvcn], the “activity in ELISA (inhibition of RBD-ACE2 binding)” value on RBD-ACE2 binding is reported as “high activities”.
Take `C[C@H]1CC[C@@]2(OC1)O[C@H]1C[C@H]3[C@@H]4CC[C@@H]5C[C@@H](O[C@@H]6O[C@H](CO)[C@H](O)[C@H](O)[C@H]6O[C@@H]6O[C@H](CO)[C@@H](O)[C@H](O)[C@H]6O)CC[C@]5(C)[C@H]4CC[C@]3(C)[C@H]1[C@@H]2C` [TimA, timosaponin A III]: on RBD-ACE2 binding, the “activity in ELISA (inhibition of RBD-ACE2 binding)” value is “almost inactive”.

What is called Kd is the concentration at which binding is half-saturated. In general, EC50 refers to the concentration at which the effect is half-maximal. A word on the IC50: it is the concentration at which inhibition is half-maximal.

These data come from paper PMC8364251 (Pharmacological Research, 2021).
